One series in a line: in vitro. Particulars: human.
A further series deals with PXR (Homo sapiens (Human), UniProt O75469). Put plainly: Human PXR activation assay (luciferase reporter gene assay, DPX2 cells). It is filed as cell-based. Particulars: human. As for the experimental part:
A stably transformed tumor cell line (DPX2) was plated on 96-well microtiter plates. DPX2 cells harbor the human PXR gene (NR112) and a luciferase reporter gene linked to two promoters identified in the human CYP3A4 gene, namely XREM and PXRE. […] The number of viable cells was determined and the reporter gene activity was assessed. Positive control: […]
On the technique in general: In a reporter assay the amount or activity of a reporter protein is the signal.

Another series deals with OCT2 (Homo sapiens (Human), UniProt O15244). The series can be described thus: OCT2 inhibition assay (14C-TEA uptake, OCT2-transfected MDCKII cells). In kind it is cell-based. As for the experimental part: On assay day, cells were trypsinized and resuspended in Krebs-Henseleit Buffer (KHB), pH 7.4 at […]. Cells were preincubated for 15 min in assay plate before addition of test compound or substrate. Test compounds were serially diluted in DMSO and then spiked (2 μL) into in 0.4 mL KHB buffer containing wild-type or OCT2-transfected cells and incubated for 10 minutes. Assay was initiated with the addition of 0.1 mL of 100 μM ^14C-TEA in KHB buffer (20 μM final concentration after mixing). The concentration of TEA is based on the Km. After 10 minutes of incubation, the assay mixture was quenched with addition of 0.5 mL of ice-cold 1×PBS buffer. Samples were then centrifuged at 1000 rpm for 5 min and supernatants were removed. Wash steps were repeated four times with ice-cold PBS. Finally, the cell pellets were lysed with 0.2N NaOH and let sit at room temperature for at least 30 min to ensure complete lysis. Samples were then counted on liquid scintillation counter and dpm counts were used to perform the following calculations.

Series [1] in a line: Pharmacokinetic analysis following intravenous administration to beagle dogs. It is filed as in vivo. Particulars: male, dog, 0.5 mg/kg; for MRT / clearance: beagle, in vivo, iv; for Vd: plasma, beagle dogs, IV infusion over 30 min, read-out: Vss. How it is done: Pharmacokinetic analysis was performed on various test compounds following intravenous or oral administration to beagle dogs.
For pharmacokinetic analysis of intravenously administered compounds, the test compounds were formulated in 5% Ethanol, 55% PEG 300, and 40% water at 0.1 mg/mL for IV infusion. For pharmacokinetic analysis of orally administered compounds, the test compounds were formulated as an aqueous suspension in 0.1% Tween 20, 0.5% HPMC LV 100 in Di Water at 1 mg/kg.
Each dosing group consisted of 3 male, non-naïve purebred beagle dogs. At dosing, the animals weighed between 10 to 13 kg. The animals were fasted overnight prior to dose administration and up to 4 hr after dosing. For studies of intravenous administration, the test article was administered to the animals by intravenous infusion over 30 min. The rate of infusion was adjusted according to the body weight of each animal to deliver a dose of 0.5 mg/kg. For studies of oral administration, the test article was administered according to the body weight of each animal to deliver a dose of 1 mg/kg.
For pharmacokinetic analysis of intravenously administered compounds, serial venous blood samples (approximately 1 mL each) were taken from each animal at 0, 0.250, 0.483, 0.583, 0.750, 1.00, 1.50, 2.00, 4.00, 8.00, 12.0, and 24.0 hours after dosing. The blood samples were collected into Vacutainer™ tubes containing EDTA-K2 as the anti-coagulant and were immediately placed on wet ice pending centrifugation for plasma. An LC/MS/MS method was used to measure the concentration of the test compound in plasma. An aliquot of 100 μL of each plasma sample was added to a clean 96 well plate, and 400 μL of cold acetonitrile/internal standard solution (ACN)/(ISTD) was added. After protein precipitation, an aliquot of 110 μL of the supernatant was transferred to a clean 96-well plate and diluted with 300 μL of water. An aliquot of 25 μL of the above solution was injected into a TSQ Quantum Ultra LC/MS/MS system utilizing a Hypersil Gold C18 HPLC column (50×3.0 mm, 5 μm; Thermo-Hypersil Part #25105-053030). An Agilent 1200 series binary pump (P/N G1312A Bin Pump) was used for elution and separation, and an HTS Pal autosampler (LEAP Technologies, Carrboro, N.C.) was used for sample injection. A TSQ Quantum Ultra triple quadrupole mass spectrometer was utilized in selective reaction monitoring mode (Thermo Finnigan, San Jose, Calif.). Liquid chromatography was performed using two mobile phases: mobile phase A contained 1% acetonitrile in 2.5 mM ammonium formate aqueous solution with pH of 3.0, and mobile phase B contained 90% acetonitrile in 10 mM ammonium formate with pH of 4.6. Non-compartmental pharmacokinetic analysis was performed on the plasma concentration-time data. The resulting data are shown in the first three columns of Table 4. In Table 4, CL refers to clearance, which characterizes the rate at which drug is removed from plasma. The lower the clearance of a drug is, the longer the elimination half-life is in the body. Vss refers to the steady state volume of distribution and indicates how well a drug is distributed into the tissues. The larger the Vss is, the longer the elimination half-life is in the body. MRT refers to mean residence time, which is a measure of the average time molecules exist in the body.

Where [2] appears, read: 15 μM, relative to maximum fold induction by 10 or 20 μM rifampicin, DPX2 cells, 24 hours, read-out: % Emax at 15 μM.
Setting [3] is: MT-4 cells, mock-infected, CC50 nM in MT-4, MT-4 cells, 5 days incubation.
Where [4] appears, read: OCT2 mediated uptake of 14C-TEA (20 μM), MDCKII cells, read-out: IC50.

Where two headings read alike, the source gives them in different places.

PXR, sequence (O75469 whole entry): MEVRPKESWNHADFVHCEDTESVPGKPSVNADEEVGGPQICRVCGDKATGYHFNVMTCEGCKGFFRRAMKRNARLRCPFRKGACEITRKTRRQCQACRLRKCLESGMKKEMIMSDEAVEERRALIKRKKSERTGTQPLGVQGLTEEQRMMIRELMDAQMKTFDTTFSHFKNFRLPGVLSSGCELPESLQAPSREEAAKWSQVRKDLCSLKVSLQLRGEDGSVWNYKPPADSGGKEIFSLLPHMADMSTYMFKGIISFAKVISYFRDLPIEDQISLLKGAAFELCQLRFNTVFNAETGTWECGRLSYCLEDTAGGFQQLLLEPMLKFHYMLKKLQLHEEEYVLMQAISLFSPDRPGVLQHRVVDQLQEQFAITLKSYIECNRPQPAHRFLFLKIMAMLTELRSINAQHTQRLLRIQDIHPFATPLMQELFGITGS
OCT2, sequence (O15244 whole entry): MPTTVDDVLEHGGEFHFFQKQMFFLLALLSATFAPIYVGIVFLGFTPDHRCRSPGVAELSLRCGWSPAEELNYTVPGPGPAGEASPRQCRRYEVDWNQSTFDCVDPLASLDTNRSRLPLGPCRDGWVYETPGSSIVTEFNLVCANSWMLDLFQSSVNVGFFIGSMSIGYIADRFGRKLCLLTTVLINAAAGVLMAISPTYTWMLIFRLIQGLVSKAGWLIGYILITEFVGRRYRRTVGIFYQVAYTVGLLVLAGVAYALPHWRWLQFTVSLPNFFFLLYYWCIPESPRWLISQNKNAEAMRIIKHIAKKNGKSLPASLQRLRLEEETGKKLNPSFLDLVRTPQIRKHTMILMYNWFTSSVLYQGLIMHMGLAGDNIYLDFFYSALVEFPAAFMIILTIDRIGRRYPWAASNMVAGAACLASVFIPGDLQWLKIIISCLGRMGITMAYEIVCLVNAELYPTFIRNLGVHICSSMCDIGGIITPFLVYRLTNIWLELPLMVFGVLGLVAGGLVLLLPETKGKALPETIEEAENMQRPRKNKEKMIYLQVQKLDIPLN

One may read the Emax as the greatest response seen or fitted, relative to the assay's reference. As usually defined, the IC50 is the concentration that inhibits the measured activity by half. As to `CC1CC2CC1OC1Cn3cc(C(=O)NCc4ccc(F)cc4F)c(=O)c(O)c3C(=O)N21` (single isomer, unassigned) [Compound 40], in “in vitro” (CC50 nM in MT-4), the CC50 at 5 days amounted to 9560 nM. For the same compound, at PXR (setting [2]), the Emax at 24 h, 15 µM turned out to be 0%. This compound yielded an IC50 on OCT2 of 0.204 µM.
Take `O=C(NCc1c(F)cc(F)cc1F)c1cn2c(c(O)c1=O)C(=O)N1[C@H]3C[C@H](C3)[C@H]1C2` (single isomer, unassigned) [Compound 96]: in the series “in vitro” (setting [3]), the CC50 at 5 days was determined as 26600 nM. In addition, the maximal effect (Emax) at 24 h, 15 µM on PXR (setting [2]) is 11%. For the same compound, at OCT2 (setting [4]), the IC50 is 1.36 µM.
The compound `O=C(NCc1ccc(F)cc1F)c1cn2c(c(O)c1=O)C(=O)N1C(C2)[C@H]2CC[C@@H]1C2` (stereo in doubt) [Compound 48, (1S,4R,12aS)-N-(2,4-difluorobenzyl)-7-hydroxy-6,8-dioxo-1,2,3,4,6,8,12,12a-octahydro-1,4-methanodipyrido[1,2-a:1′,2′-d]pyrazine-9-carboxamide] displayed a CC50 at 5 days in “in vitro” (CC50 nM in MT-4) of 14000 nM. The Emax at 24 h, 15 µM on PXR (setting [2]) is 5%. This compound also had an IC50 at OCT2 of 4.91 µM.
For `C[C@@H]1CCO[C@H]2Cn3cc(C(=O)NC4(c5ccc(F)cc5F)CC4)c(=O)c(O)c3C(=O)N12` [Compound 5, (4R,12aS)-N-(1-(2,4-difluorophenyl)cyclopropyl)-7-hydroxy-4-methyl-6,8-dioxo-3,4,6,8,12,12a-hexahydro-2H-[1,3]oxazino[3,2-d]pyrido[1,2-a]pyrazine-9-carboxamide], the CC50 at 5 days in the series “in vitro” (setting [3]) was found to be 10500 nM. The Emax at 24 h, 15 µM at PXR (setting [2]) amounted to 32%. Moreover, on OCT2 (setting [4]), the IC50 came to 2.23 µM.
The MRT is the average time that molecules of a dose stay in the body. One may read the clearance as the volume of plasma or blood freed of the substance per unit of time. Read a low clearance as a low capacity for elimination. `O=C(NCc1ccc(F)cc1F)c1cn2c(c(O)c1=O)C(=O)N1C(C2)O[C@H]2CCC[C@@H]1C2` (stereo partly drawn) [Compound 7, (2S,6R)-N-(2,4-difluorobenzyl)-9-hydroxy-8,10-dioxo-3,4,5,6,8,10,14,14a-octahydro-2H-2,6-methanopyrido[1′,2′:4,5]pyrazino[2,1-b][1,3]oxazocine-11-carboxamide] came in with a CC50 at 5 days in the series “in vitro” (CC50 nM in MT-4) of 15600 nM. Moreover, the Emax at 24 h, 15 µM on PXR worked out at 6%. In series [1], the MRT came to 2.3 h, the clearance is 8.5 mL/min/kg and the Vd was 1.2 L/kg.
For `O=C(NCc1ccc(F)cc1F)c1cn2c(c(O)c1=O)C(=O)N1C(C2)O[C@@H]2CCC[C@H]1C2` (stereo partly drawn) [Compound 8, (2R,6S)-N-(2,4-difluorobenzyl)-9-hydroxy-8,10-dioxo-3,4,5,6,8,10,14,14a-octahydro-2H-2,6-methanopyrido[1′,2′:4,5]pyrazino[2,1-b][1,3]oxazocine-11-carboxamide] the same measures were 13900 nM, 7%, 1.8 h, 8.3 mL/min/kg and 0.87 L/kg.
In turn, `C[C@@H](NC(=O)c1cn2c(c(O)c1=O)C(=O)N1[C@@H]3CC[C@@H](C3)O[C@H]1C2)c1ccc(F)cc1F` [Compound 11, (2S,5R,13aS)-N—((R)-1-(2,4-difluorophenyl)ethyl)-8-hydroxy-7,9-dioxo-2,3,4,5,7,9,13,13a-octahydro-2,5-methanopyrido[1′,2′:4,5]pyrazino[2,1-b][1,3]oxazepine-10-carboxamide] yielded a CC50 at 5 days in the series “in vitro” (CC50 nM in MT-4) of 10300 nM. This compound came in with an IC50 against OCT2 of 10 µM.
On the same counts, the results for `C[C@H](NC(=O)c1cn2c(c(O)c1=O)C(=O)N1[C@@H]3CC[C@@H](C3)O[C@H]1C2)c1ccc(F)cc1F` [Compound 13, (2S,5R,13aS)-N—((S)-1-(2,4-difluorophenyl)ethyl)-8-hydroxy-7,9-dioxo-2,3,4,5,7,9,13,13a-octahydro-2,5-methanopyrido[1′,2′:4,5]pyrazino[2,1-b][1,3]oxazepine-10-carboxamide] are 12700 nM and 0.61 µM.
In turn, `O=C(N[C@@H](c1ccc(F)cc1F)C(F)(F)F)c1cn2c(c(O)c1=O)C(=O)N1C(C2)O[C@H]2CC[C@@H]1C2` (stereo partly drawn) [Compound 36, (2S,5R)-N—((S)-1-(2,4-difluorophenyl)-2,2,2-trifluoroethyl)-8-hydroxy-7,9-dioxo-2,3,4,5,7,9,13,13a-octahydro-2,5-methanopyrido[1′,2′:4,5]pyrazino[2,1-b][1,3]oxazepine-10-carboxamide] displayed a CC50 at 5 days in “in vitro” (CC50 nM in MT-4) of 11400 nM. This compound also had a maximal effect (Emax) at 24 h, 15 µM on PXR of 3%. At OCT2, this compound returned an IC50 of 10 µM.
Compound `C[C@H]1C[C@@H]2C[C@H]1O[C@H]1Cn3cc(C(=O)NCc4ccc(F)cc4F)c(=O)c(O)c3C(=O)N21` [Compound 39, (2R,3S,5R,3aS)-N-(2,4-difluorobenzyl)-8-hydroxy-3-methyl-7,9-dioxo-2,3,4,5,7,9,13,13a-octahydro-2,5-methanopyrido[1′,2′:4,5]pyrazino[2,1-b][1,3]oxazepine-10-carboxamide] had a CC50 at 5 days in the series “in vitro” (CC50 nM in MT-4) of 12200 nM. The Emax at 24 h, 15 µM at PXR (setting [2]) amounted to 6%. The compound further gave an IC50 against OCT2 of 0.358 µM.
In the series “in vitro” (setting [3]), `O=C(NCc1c(F)cc(F)cc1F)c1cn2c(c(O)c1=O)C(=O)N1[C@@H]3CC[C@@H](C3)O[C@H]1C2` [Compound 45, (13aS)-8-hydroxy-7,9-dioxo-N-(2,4,6-trifluorobenzyl)-2,3,4,5,7,9,13,13a-octahydro-2,5-methanopyrido[1′,2′:4,5]pyrazino[2,1-b][1,3]oxazepine-10-carboxamide] returned a CC50 at 5 days of 15800 nM. Moreover, the Emax at 24 h, 15 µM at PXR (setting [2]) was 19%. Further, the IC50 on OCT2 (setting [4]) amounted to 0.137 µM.
Consider `O=C(NCc1ccc(F)cc1Cl)c1cn2c(c(O)c1=O)C(=O)N1[C@H]3CC[C@H](C3)O[C@@H]1C2` [Compound 63, (2R,5S,13aR)-N-(2-chloro-4-fluorobenzyl)-8-hydroxy-7,9-dioxo-2,3,4,5,7,9,13,13a-octahydro-2,5-methanopyrido[1′,2′:4,5]pyrazino[2,1-b][,3]oxazepine-10-carboxamide], for which the CC50 at 5 days in “in vitro” (CC50 nM in MT-4) turned out to be 3160 nM. Also, at PXR (setting [2]), the maximal effect (Emax) at 24 h, 15 µM is 13%. At OCT2 (setting [4]), the IC50 was found to be 0.042 µM.
With `O=C(NCc1cc(F)c(F)cc1F)c1cn2c(c(O)c1=O)C(=O)N1[C@H]3CC[C@H](C3)O[C@@H]1C2` [Compound 64, (2R,5S,13aR)-8-hydroxy-7,9-dioxo-N-(2,4,5-trifluorobenzyl)-2,3,4,5,7,9,13,13a-octahydro-2,5-methanopyrido[1′,2′:4,5]pyrazino[2,1-b][1,3]oxazepine-10-carboxamide], the CC50 at 5 days in “in vitro” (CC50 nM in MT-4) turned out to be 3330 nM. This compound also gave an Emax at 24 h, 15 µM at PXR of 8%. At OCT2 (setting [4]), the IC50 amounted to 0.094 µM.
